Test results taken from PMC4998957 (Nature, 2016).

How the values were obtained:
CAHexamer = CAHexamer (Human immunodeficiency virus type 1 group M subtype B, UniProt P12493, A146C/E177C/M317A/W316A); format: binding, HIV-1
[1] = biological target: CAHexamer (disulfide-stabilised HIV-1 capsid hexamer) (Human immunodeficiency virus type 1 group M subtype B, UniProt P12493, A146C/E177C/M317A/W316A); format: binding
[2] = biological target: disulfide-stabilised HIV-1 capsid protein hexamer (CA_(Hexamer)) R18G (HIV-1); assay: cross-linking
HIV-1 capsid cores = assay: Endogenous reverse transcription; format: biochemical; conditions: DNase I and RNase A 100 μg/ml, Benzonase 250 U/ml, 100 μM each dNTP, 16 h

Nc1ccn([C@H]2C[C@H](O)[C@@H](COP(=O)(O)OP(=O)(O)OP(=O)(O)O)O2)c(=O)n1 [dCTP]
on-rate (kon) (CAHexamer): > 2e+08 M⁻¹ s⁻¹ | half life of complex (CAHexamer; equivalent of the off-rate): 58 ms | off-rate (CAHexamer; fluorescent dCTP displaced with excess unlabeled dCTP (20 µM)): > 12 s⁻¹

Cc1cn([C@H]2C[C@H](O)[C@@H](COP(=O)(O)OP(=O)(O)OP(=O)(O)O)O2)c(=O)[nH]c1=O [dTTP]
effect of 1 mM (physiological) inorganic phosphate on hexamer binding ([1]; 2 nM fluorescein-labelled dTTP, 1 mM inorganic phosphate): no significant effect | comparison of affinity of ribose and deoxyribose nucleoside triphosphates ([1]; titration of CAHexamer into labelled nucleotides): same affinity

disulfide-stabilised HIV-1 capsid protein hexamer (CA_(Hexamer)) R18G (natural protein)
stoichiometry N [2]: 6

B1: RNase A: nuclease (protein, UniProt P61823 27-150, looked up)
Ribonuclease pancreatic: KETAAAKFERQHMDSSTSAASSSNYCNQMMKSRNLTKDRCKPVNTFVHESLADVQAVCSQKNVACKNGQTNCYQSYSTMSITDCRETGSSKYPNCAYKTTQANKHIIVACEGNPYVPVHFDASV
effect of nucleases on encapsidated reverse transcription (HIV-1 capsid cores): failed to prevent
